# Biological target: KRas G12C (Homo sapiens, UniProt P01116, G12C)
# Experiment: Cellular inhibition of KRas G12C measured by Phospho-ERK in NCI-H358 cells
# Type: cell-based
# Details: pERK(Thr202/Tyr204) normalized with GAPDH, NCI-H358 cells, 3 hours; read-out: IC50
# Method in brief: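 NCI-H358 cells were allowed to attach for 8-12 hours, then exposed to compounds for 3 hours at 0.5% DMSO final. After formaldehyde fixation and methanol permeabilization, phospho-ERK (Thr202/Tyr204) was detected by in-cell immunofluorescence and normalized to GAPDH; IC50 came from a 4-parameter fit of percent-of-DMSO values.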
# Chain of KRas G12C (P01116 1-188 isoform P01116-2 G12C): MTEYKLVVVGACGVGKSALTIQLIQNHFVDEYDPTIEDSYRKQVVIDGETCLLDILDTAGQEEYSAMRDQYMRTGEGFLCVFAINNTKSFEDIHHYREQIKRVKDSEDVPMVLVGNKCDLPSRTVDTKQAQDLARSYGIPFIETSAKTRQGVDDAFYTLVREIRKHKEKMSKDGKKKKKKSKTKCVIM
row,Structure (SMILES),IC50
1,"C=CC(=O)N1CCN(c2nc(OCCN(CC)CC)nc3c2CCN(c2c(C)ccc4[nH]ncc24)C3)CC1 [Example 163, 1-(4-(2-(2-(diethylamino)ethoxy)-7-(5-methyl-1H-indazol-4-yl)-5,6,7,8-tetrahydropyrido[3,4-d]pyrimidin-4-yl)piperazin-1-yl)prop-2-en-1-one]",> 1 µM
2,C=CC(=O)N1CCN(c2nc(OCCN3CCCCC3)nc3c2CCN(c2c(C)ccc4[nH]ncc24)C3)CC1 [Example 164],> 1 µM
3,"C=CC(=O)N1CCN(c2nc(OCCCN3CCOCC3)nc3c2CCN(c2cc(O)cc4ccccc24)C3)C(CO)C1 (stereo not drawn) [Example 168, 1-(3-(hydroxymethyl)-4-(7-(3-hydroxynaphthalen-1-yl)-2-(3-morpholinopropoxy)-5,6,7,8-tetrahydropyrido[3,4-d]pyrimidin-4-yl)piperazin-1-yl)prop-2-en-1-one]",> 1 µM
4,"C=CC(=O)N1CCN(c2nc(OC[C@@H]3CCCN3C)nc3c2CCN(c2cc(O)cc4ccccc24)C3)C(CO)C1 (stereo partly drawn) [Example 169, 1-[3-(hydroxymethyl)-4-[7-(3-hydroxy-1-naphthyl)-2-[[(2S)-1-methylpyrrolidin-2-yl]methoxy]-6,8-dihydro-5H-pyrido [3,4-d]pyrimidin-4-yl]piperazin-1-yl]prop-2-en-1-one]",0.0001 to 1 µM
5,"C=CC(=O)N1CCN(c2nc(OCCN(C)C)nc3c2CCN(c2cc(O)cc4ccccc24)C3)CC1CC#N (stereo not drawn) [Example 170, 2-(1-acryloyl-4-(2-(2-(dimethylamino)ethoxy)-7-(3-hydroxynaphthalen-1-yl)-5,6,7,8-tetrahydropyrido[3,4-d]pyrimidin-4-yl)piperazin-2-yl)acetonitrile]",0.0001 to 1 µM
6,"C=CC(=O)N1CCN(c2nc(OCCN(C)C)nc3c2CCN(c2cc(O)cc4ccccc24)C3)C(CCO)C1 (stereo not drawn) [Example 172, 1-(4-(2-(2-(dimethylamino)ethoxy)-7-(3-hydroxynaphthalen-1-yl)-5,6,7,8-tetrahydropyrido[3,4-d]pyrimidin-4-yl)-3-(2-hydroxyethyl)piperazin-1-yl)prop-2-en-1-one]",> 1 µM
7,"C=CC(=O)N1CCN(c2nc(OC[C@H]3CCC(C)(C)N3)nc3c2CCN(c2cc(O)cc4ccccc24)C3)CC1 [Example 174, (R)-1-(4-(2-((5,5-dimethylpyrrolidin-2-yl)methoxy)-7-(3-hydroxynaphthalen-1-yl)-5,6,7,8-tetrahydropyrido[3,4-d]pyrimidin-4-yl)piperazin-1-yl)prop-2-en-1-one]",> 1 µM
8,"C=CC(=O)N1CCN(c2nc(OCCN(C)C)nc3c2CCN(c2cc(O)cc4ccccc24)C3)C[C@@H]1CC#N [Example 176, 2-[(2S)-4-[2-[2-(dimethylamino)ethoxy]-7-(3-hydroxy-1-naphthyl)-6,8-dihydro-5H-pyrido[3,4-d]pyrimidin-4-yl]-1-prop-2-enoyl-piperazin-2-yl] acetonitrile]",0.0001 to 1 µM
9,"C=CC(=O)N1CCN(c2nc(OC[C@H]3CCCN3C)nc3c2CCN(c2cc(O)cc4ccccc24)C3)CC1CC#N (stereo partly drawn) [Example 178, 2-[4-[7-(3-hydroxy-1-naphthyl)-2-[[(2R)-1-methylpyrrolidin-2-yl]methoxy]-6,8-dihydro-5H-pyrido[3,4-d]pyrimidin-4-yl]-1-prop-2-enoyl-piperazin-2-yl]acetonitrile]",0.0001 to 1 µM
10,"C=CC(=O)N1CCN(c2nc(OC[C@@H]3CCN(C)C3)nc3c2CCN(c2cc(O)cc4ccccc24)C3)CC1CC#N (stereo partly drawn) [Example 179, 2-[4-[7-(3-hydroxy-1-naphthyl)-2-[[(3R)-1-methylpyrrolidin-3-yl]methoxy]-6,8-dihydro-5H-pyrido[3,4-d]pyrimidin-4-yl]-1-prop-2-enoyl-piperazin-2-yl]acetonitrile]",0.0001 to 1 µM
11,"C=CC(=O)N1CCN(c2nc(OCCCN3C[C@@H]4C[C@H]3CO4)nc3c2CCN(c2c(C)ccc4[nH]ncc24)C3)CC1 [Example 181, 1-(4-(2-(3-((1S,4S)-2-oxa-5-azabicyclo[2.2.1]heptan-5-yl)propoxy)-7-(5-methyl-1H-indazol-4-yl)-5,6,7,8-tetrahydropyrido[3,4-d]pyrimidin-4-yl)piperazin-1-yl)prop-2-en-1-one]",> 1 µM
12,"C=CC(=O)N1CCN(c2nc(OCCCO)nc3c2CCN(c2cc(O)cc4ccccc24)C3)CC1 [Example 184, 1-[4-[7-(3-hydroxy-1-naphthyl)-2-(3-hydroxypropoxy)-6,8-dihydro-5H-pyrido[3,4-d]pyrimidin-4-yl]piperazin-1-yl]prop-2-en-1-one]",> 1 µM
13,"C=CC(=O)N1CCN(c2nc(OCCCN3C[C@H]4C[C@@H]3CO4)nc3c2CCN(c2cc(O)cc4ccccc24)C3)CC1 [Example 185, 1-(4-(2-(3-((1R,4R)-2-oxa-5-azabicyclo[2.2.1]heptan-5-yl)propoxy)-7-(3-hydroxynaphthalen-1-yl)-5,6,7,8-tetrahydropyrido[3,4-d]pyrimidin-4-yl)piperazin-1-yl)prop-2-en-1-one]",0.0001 to 1 µM
14,C=CC(=O)N1CCN(c2nc(-c3cccc(CN4CCOCC4)c3)nc3c2CCN(c2cc(O)cc4ccccc24)C3)CC1 [Example 186],> 1 µM
15,"C=CC(=O)N1CCN(c2nc(OC[C@H]3CCN(C)C3)nc3c2CCN(c2cc(O)cc4ccccc24)C3)CC1 [Example 188, (S)-1-(4-(7-(3-hydroxynaphthalen-1-yl)-2-((1-methylpyrrolidin-3-yl)methoxy)-5,6,7,8-tetrahydropyrido[3,4-d]pyrimidin-4-yl)piperazin-1-yl)prop-2-en-1-one]",0.0001 to 1 µM
16,"C=CC(=O)N1CCN(c2nc(OCC3CCN(Cc4ccccc4)C3)nc3c2CCN(c2cc(O)cc4ccccc24)C3)CC1 (stereo not drawn) [Example 189, 1-(4-(2-((1-benzylpyrrolidin-3-yl)methoxy)-7-(3-hydroxynaphthalen-1-yl)-5,6,7,8-tetrahydropyrido[3,4-d]pyrimidin-4-yl)piperazin-1-yl)prop-2-en-1-one]",> 1 µM
17,"C=CC(=O)N1CCN(c2nc(OCC3CCN(C4CC4)C3)nc3c2CCN(c2cc(O)cc4ccccc24)C3)CC1 (stereo not drawn) [Example 190, 1-(4-(2-((1-cyclopropylpyrrolidin-3-yl)methoxy)-7-(3-hydroxynaphthalen-1-yl)-5,6,7,8-tetrahydropyrido[3,4-d]pyrimidin-4-yl)piperazin-1-yl)prop-2-en-1-one]",0.0001 to 1 µM
18,"C=CC(=O)N1[C@H](C)CN(c2nc(OCCCN3CCOCC3)nc3c2CCN(c2cc(O)cc4ccccc24)C3)C[C@@H]1C [Example 191, 1-((2S,6R)-4-(7-(3-hydroxynaphthalen-1-yl)-2-(3-morpholinopropoxy)-5,6,7,8-tetrahydropyrido[3,4-d]pyrimidin-4-yl)-2,6-dimethylpiperazin-1-yl)prop-2-en-1-one]",> 1 µM
19,"C=CC(=O)N1CCN(c2nc(OC[C@@H]3CCCN(C)C3)nc3c2CCN(c2cc(O)cc4ccccc24)C3)CC1 [Example 192, (R)-1-(4-(7-(3-hydroxynaphthalen-1-yl)-2-((1-methylpiperidin-3-yl)methoxy)-5,6,7,8-tetrahydropyrido[3,4-d]pyrimidin-4-yl)piperazin-1-yl)prop-2-en-1-one]",0.0001 to 1 µM
20,"C=CC(=O)N1CCN(c2nc(OCC3CN(C)CCO3)nc3c2CCN(c2cc(O)cc4ccccc24)C3)CC1 (stereo not drawn) [Example 193, 1-(4-(7-(3-hydroxynaphthalen-1-yl)-2-((4-methylmorpholin-2-yl)methoxy)-5,6,7,8-tetrahydropyrido[3,4-d]pyrimidin-4-yl)piperazin-1-yl)prop-2-en-1-one]",0.0001 to 1 µM
21,"C=CC(=O)N1CCN(c2nc(OCC3COCCN3C)nc3c2CCN(c2cc(O)cc4ccccc24)C3)CC1 (stereo not drawn) [Example 194, 1-(4-(7-(3-hydroxynaphthalen-1-yl)-2-((4-methylmorpholin-3-yl)methoxy)-5,6,7,8-tetrahydropyrido[3,4-d]pyrimidin-4-yl)piperazin-1-yl)prop-2-en-1-one]",> 1 µM
22,"C=CC(=O)N1CCN(c2nc(OC[C@H]3CCCCN3C)nc3c2CCN(c2cc(O)cc4ccccc24)C3)CC1 [Example 195, (R)-1-(4-(7-(3-hydroxynaphthalen-1-yl)-2-((1-methylpiperidin-2-yl)methoxy)-5,6,7,8-tetrahydropyrido[3,4-d]pyrimidin-4-yl)piperazin-1-yl)prop-2-en-1-one]",> 1 µM
23,"C=CC(=O)N1CCN(c2nc(OC[C@@H]3CCCCN3C)nc3c2CCN(c2cc(O)cc4ccccc24)C3)CC1 [Example 196, (S)-1-(4-(7-(3-hydroxynaphthalen-1-yl)-2-((1-methylpiperidin-2-yl)methoxy)-5,6,7,8-tetrahydropyrido[3,4-d]pyrimidin-4-yl)piperazin-1-yl)prop-2-en-1-one]",0.0001 to 1 µM
24,"C=CC(=O)N1CCN(c2nc(OC[C@@H]3CCCN3CC)nc3c2CCN(c2cc(O)cc4ccccc24)C3)CC1 [Example 197, (S)-1-(4-(2-((1-ethylpyrrolidin-2-yl)methoxy)-7-(3-hydroxynaphthalen-1-yl)-5,6,7,8-tetrahydropyrido[3,4-d]pyrimidin-4-yl)piperazin-1-yl)prop-2-en-1-one]",0.0001 to 1 µM
25,"C/C=C/C(=O)N1CCN(c2nc(OC[C@@H]3CCCN3C)nc3c2CCN(c2cc(O)cc4ccccc24)C3)CC1 [Example 198, (S,E)-1-(4-(7-(3-hydroxynaphthalen-1-yl)-2-((1-methylpyrrolidin-2-yl)methoxy)-5,6,7,8-tetrahydropyrido[3,4-d]pyrimidin-4-yl)piperazin-1-yl)but-2-en-1-one]",> 1 µM
26,"CN(C)C/C=C/C(=O)N1CCN(c2nc(OC[C@@H]3CCCN3C)nc3c2CCN(c2cc(O)cc4ccccc24)C3)CC1 [Example 199, (S,E)-4-(dimethylamino)-1-(4-(7-(3-hydroxynaphthalen-1-yl)-2-((1-methylpyrrolidin-2-yl)methoxy)-5,6,7,8-tetrahydropyrido[3,4-d]pyrimidin-4-yl)piperazin-1-yl)but-2-en-1-one]",> 1 µM
27,"C=CC(=O)N1CCN(c2nc(OC[C@@H]3CCCN3C)nc3c2CCN(c2cccc4ccccc24)C3)CC1 [Example 200, (S)-1-(4-(2-((1-methylpyrrolidin-2-yl)methoxy)-7-(naphthalen-1-yl)-5,6,7,8-tetrahydropyrido[3,4-d]pyrimidin-4-yl)piperazin-1-yl)prop-2-en-1-one]",> 1 µM
